Legend:
[1] = target: T1, SUR1-TRPM4 channel (Homo sapiens, UniProt Q09428+Q8TD43); test: Patch clamp recordings of SUR1-TRPM4 channel currents in mechanically stimulated endothelial cells; assay type: cell-based; details: endothelial cells after mechanical stimulation; currents carried by Cs+ ions
T1 construct: endogenous in cells
Experimental: FIGS. 2A and 2B. Mechanical stimulation of endothelial cells causes upregulation of functional SUR1-TRPM4 channels. Endothelial cells were cultured in dishes with flexible bottoms and the cells were mechanically stimulated by applying puffs of air to the underside of the dishes. […] FIG. 2B: Amplitudes of SUR1-TRPM4 channel currents measured at −50 mV under control conditions before mechanical activation (CTR), following mechanical activation (STR), following mechanical activation in the presence of the NF-kappaB inhibitor, pyrrolidine dithiocarbamate (PDTC) as negative control, and without mechanical activation, in the presence of tumor necrosis factor alpha (TNFalpha), as positive control.
Endothelial cells were cultured in dishes with flexible bottoms and the cells were mechanically stimulated by applying puffs of air to the underside of the dishes. […] NFκB activation caused robust transcriptional upregulation of the SUR1-TRPM4 channels 6 hours later (FIGS. 1B and 1C). […] The critical role of the mechanosensitive transcription factor, NF-κB, in Sur1-Trpm4 channel upregulation was confirmed using the NF-κB inhibitor, pyrrolidine dithiocarbamate (PDTC) as negative control, and the NF-κB activator, tumor necrosis factor α (TNFα), as positive control (FIG. 2B).

[2] = tested on: TRPM4; test: Reduction of TRPM4 expression by antisense oligodeoxynucleotides; assay type: in vivo; details: TRPM4-AS1 and TRPM4-AS2 used together; phosphorothioated
Excerpt: (§1) In certain embodiments of the invention, antagonists of TRPM4 are employed in methods and/or compositions. Antagonists may be of any kind, but in particular embodiments the antagonists are proteins, nucleic acids, small molecules, and so forth. In specific cases, the TRPM4 antagonists comprise flufenamic acid and/or 9-phenanthrol and/or spermine and/or decavanadate and/or BTP2 and/or anti-TRPM4 antibodies. In specific cases, the TRPM4 nucleic acid antagonists comprises RNAi, such as siRNA or shRNA or antisense oligodeoxynucleotides (AS-ODN).

[3] = tested on: spinal cord injury; test: Outcome from spinal cord injury after antisense oligodeoxynucleotides; assay type: in vivo; details: TRPM4-AS1 and TRPM4-AS2 used together; phosphorothioated
Excerpt: as §1

T1 sequence (Q09428 whole entry): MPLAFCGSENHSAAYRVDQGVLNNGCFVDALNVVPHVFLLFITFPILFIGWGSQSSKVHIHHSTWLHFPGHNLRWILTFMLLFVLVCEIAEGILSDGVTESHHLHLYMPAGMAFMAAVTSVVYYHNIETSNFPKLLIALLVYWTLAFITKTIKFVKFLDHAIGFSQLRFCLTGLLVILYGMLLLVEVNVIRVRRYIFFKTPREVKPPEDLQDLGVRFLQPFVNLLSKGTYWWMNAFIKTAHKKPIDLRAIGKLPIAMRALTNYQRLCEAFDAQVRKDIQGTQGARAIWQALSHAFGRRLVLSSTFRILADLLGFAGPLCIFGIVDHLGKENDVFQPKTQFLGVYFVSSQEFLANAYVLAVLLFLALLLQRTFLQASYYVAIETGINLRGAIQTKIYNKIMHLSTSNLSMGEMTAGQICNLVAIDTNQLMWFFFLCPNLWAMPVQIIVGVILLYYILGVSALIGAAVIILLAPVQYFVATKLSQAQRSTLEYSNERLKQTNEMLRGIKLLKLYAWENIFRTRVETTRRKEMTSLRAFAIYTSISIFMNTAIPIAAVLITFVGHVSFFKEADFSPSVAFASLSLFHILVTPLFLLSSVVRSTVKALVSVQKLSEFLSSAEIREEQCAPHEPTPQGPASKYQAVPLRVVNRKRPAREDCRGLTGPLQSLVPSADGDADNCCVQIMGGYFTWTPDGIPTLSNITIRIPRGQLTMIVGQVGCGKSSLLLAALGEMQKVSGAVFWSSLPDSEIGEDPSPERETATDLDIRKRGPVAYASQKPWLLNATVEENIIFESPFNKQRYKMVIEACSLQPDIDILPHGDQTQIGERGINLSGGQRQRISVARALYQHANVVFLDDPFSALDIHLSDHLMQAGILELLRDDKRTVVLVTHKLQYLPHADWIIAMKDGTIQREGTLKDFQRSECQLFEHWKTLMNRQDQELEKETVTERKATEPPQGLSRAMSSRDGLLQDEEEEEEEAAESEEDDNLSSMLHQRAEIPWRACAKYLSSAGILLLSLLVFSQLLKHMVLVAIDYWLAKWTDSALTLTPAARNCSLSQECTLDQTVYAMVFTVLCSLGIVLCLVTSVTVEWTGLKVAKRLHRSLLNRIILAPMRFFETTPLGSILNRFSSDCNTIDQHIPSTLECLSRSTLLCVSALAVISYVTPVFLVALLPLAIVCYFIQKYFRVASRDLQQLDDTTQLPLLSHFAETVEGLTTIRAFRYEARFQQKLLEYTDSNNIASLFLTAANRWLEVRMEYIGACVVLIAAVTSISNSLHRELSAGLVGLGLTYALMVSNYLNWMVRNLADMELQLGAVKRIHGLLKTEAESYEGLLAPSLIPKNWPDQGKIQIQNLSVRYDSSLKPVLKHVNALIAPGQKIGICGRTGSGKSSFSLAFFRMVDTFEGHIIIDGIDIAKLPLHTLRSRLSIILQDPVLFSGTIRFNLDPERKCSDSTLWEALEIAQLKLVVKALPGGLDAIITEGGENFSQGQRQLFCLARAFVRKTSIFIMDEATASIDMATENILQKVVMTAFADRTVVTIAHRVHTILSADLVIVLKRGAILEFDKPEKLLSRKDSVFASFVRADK
T1 sequence (Q8TD43 whole entry): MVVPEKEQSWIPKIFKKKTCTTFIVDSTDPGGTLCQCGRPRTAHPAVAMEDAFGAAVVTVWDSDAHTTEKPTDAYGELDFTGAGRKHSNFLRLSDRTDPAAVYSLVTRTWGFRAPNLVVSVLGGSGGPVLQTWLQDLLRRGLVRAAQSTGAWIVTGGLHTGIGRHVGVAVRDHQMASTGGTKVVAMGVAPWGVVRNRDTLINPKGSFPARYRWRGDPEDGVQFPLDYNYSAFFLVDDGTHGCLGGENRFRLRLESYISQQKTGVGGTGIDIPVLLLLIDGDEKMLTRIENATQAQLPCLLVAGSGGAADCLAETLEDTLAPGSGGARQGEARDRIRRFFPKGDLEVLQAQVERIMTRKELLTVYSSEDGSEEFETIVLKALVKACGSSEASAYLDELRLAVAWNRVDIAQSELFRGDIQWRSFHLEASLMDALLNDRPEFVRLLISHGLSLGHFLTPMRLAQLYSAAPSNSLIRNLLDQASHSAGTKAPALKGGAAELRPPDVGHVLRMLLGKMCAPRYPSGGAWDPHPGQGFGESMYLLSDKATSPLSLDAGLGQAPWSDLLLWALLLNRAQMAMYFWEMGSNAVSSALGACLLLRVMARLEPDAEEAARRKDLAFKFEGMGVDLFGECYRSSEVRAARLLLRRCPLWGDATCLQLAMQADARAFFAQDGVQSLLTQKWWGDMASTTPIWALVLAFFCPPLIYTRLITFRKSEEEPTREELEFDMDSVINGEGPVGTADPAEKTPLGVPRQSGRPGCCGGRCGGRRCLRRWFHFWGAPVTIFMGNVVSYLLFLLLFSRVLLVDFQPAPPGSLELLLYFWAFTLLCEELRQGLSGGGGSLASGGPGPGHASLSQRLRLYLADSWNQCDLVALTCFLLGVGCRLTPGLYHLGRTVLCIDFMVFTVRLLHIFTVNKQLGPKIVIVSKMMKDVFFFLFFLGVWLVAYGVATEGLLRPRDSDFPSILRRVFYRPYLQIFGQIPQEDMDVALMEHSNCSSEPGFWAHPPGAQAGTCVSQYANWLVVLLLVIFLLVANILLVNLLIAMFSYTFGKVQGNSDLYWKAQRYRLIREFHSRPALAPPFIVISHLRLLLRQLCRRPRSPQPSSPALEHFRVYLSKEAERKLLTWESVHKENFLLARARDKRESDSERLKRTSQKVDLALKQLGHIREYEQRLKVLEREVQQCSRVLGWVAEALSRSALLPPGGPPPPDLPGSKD

Row | Compound | effect on SUR1-TRPM4 channel currents (patch clamp) [1] | reducing TRPM4 expression [2] | improving outcome from spinal cord injury [3]
1 | CNC[C@H](O)[C@@H](O)[C@H](O)[C@H](O)CO [N-methyl-D-glucamine] | channel blockade | – | –
2 | 5′-GTGTGCATCGCTGTCCCACA-3′ (chemistry not given here) [TRPM4-AS1, antisense oligodeoxynucleotide against TRPM4] | – | highly effective | highly effective
3 | 5′-CTGCGATAGCACTCGCCAAA-3′ (chemistry not given here) [TRPM4-AS2, antisense oligodeoxynucleotide against TRPM4] | – | highly effective | highly effective
